The target in the data set is albumin (Homo sapiens, UniProt P02768). As to the kind of experiment: Percentage plasma protein binding towards human serum albumin. To be noted: read-out: PB (converted). The class given is cell-free.
Chain of albumin (P02768 whole entry): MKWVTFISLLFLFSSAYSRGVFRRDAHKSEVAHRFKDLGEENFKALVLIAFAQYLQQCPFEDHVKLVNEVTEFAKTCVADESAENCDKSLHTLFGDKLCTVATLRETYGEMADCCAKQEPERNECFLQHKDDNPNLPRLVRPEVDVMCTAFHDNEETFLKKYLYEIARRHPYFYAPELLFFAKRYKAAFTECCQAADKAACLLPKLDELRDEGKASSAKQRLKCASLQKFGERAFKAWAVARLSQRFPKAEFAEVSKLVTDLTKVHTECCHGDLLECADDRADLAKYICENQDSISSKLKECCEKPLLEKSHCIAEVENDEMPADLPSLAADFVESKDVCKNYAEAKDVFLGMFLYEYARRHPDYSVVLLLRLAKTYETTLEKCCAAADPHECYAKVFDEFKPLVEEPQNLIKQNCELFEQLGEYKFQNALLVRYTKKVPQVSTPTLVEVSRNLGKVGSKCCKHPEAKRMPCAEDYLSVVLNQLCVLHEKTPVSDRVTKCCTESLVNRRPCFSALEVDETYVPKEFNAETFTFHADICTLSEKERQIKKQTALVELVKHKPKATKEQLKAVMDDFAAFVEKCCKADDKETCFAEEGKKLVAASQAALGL

Turning to `CC1=C(CC(=O)O)c2cc(F)ccc2/C1=C\c1ccc([S+](C)[O-])cc1` (stereo unspecified), the fraction unbound was 0.06.

As to `CC(C)Cc1ccc([C@@H](C)C(=O)NCCCN(C)C)cc1`, the fraction unbound is 0.249.

For the molecule `CC(Cc1ccc([C@@H](C)C(=O)NS(C)(=O)=O)cc1)C(=O)O` (stereo partly specified), the fraction unbound is 0.298.

As to `C[C@@H](C(=O)NCCN1CCCC1)c1ccc(OS(=O)(=O)C(F)(F)F)cc1`, the fraction unbound is 0.3.

For `CC(C)Cc1ccc([C@@H](C)C(=O)NCCCN2CCCCC2)cc1`, the fraction unbound was 0.149.

`CC(C)Cc1ccc([C@@H](C)C(=O)N[C@H](C)C(=O)O)cc1`: the fraction unbound was 0.04.

Take `COc1ccc2c(c1)CN(c1ccc(C(C)C(=O)O)cc1)C2=O` (stereo unspecified): the fraction unbound is 0.02.

For `C[C@@H](C(=O)NCCCN1CCCC1)c1ccc(OS(=O)(=O)C(F)(F)F)cc1`, the fraction unbound was 0.38.

For the molecule `C[C@@H](C(N)=O)c1ccc(OS(=O)(=O)C(F)(F)F)cc1`, the fraction unbound is 0.08.

Regarding `CC(C)Cc1ccc([C@@H](C)C(=O)NCCOCCO)cc1`, the fraction unbound is 0.169.

As to `CCCNC(=O)NS(=O)(=O)c1ccc(Cl)cc1` [CHLORPROPAMIDE], the fraction unbound is 0.04.

As for `CC(C(=O)O)c1ccc(-c2ccccc2)c(F)c1` (stereo unspecified) [FLURBIPROFEN], the fraction unbound is 0.005.

As to `NS(=O)(=O)c1cc2c(cc1Cl)NCNS2(=O)=O` [HYDROCHLOROTHIAZIDE], the fraction unbound was 0.42.

As to `O=C(c1ccccc1)c1ccc2n1CCC2C(=O)O` (stereo unspecified) [KETOROLAC], the fraction unbound is 0.008.

`C[C@@H](C(=O)NS(C)(=O)=O)c1ccc(OS(=O)(=O)C(F)(F)F)cc1` [LADARIXIN]: the fraction unbound was 0.002.

Consider `CS(=O)(=O)Nc1ccc([N+](=O)[O-])cc1Oc1ccccc1` [NIMESULIDE], for which the fraction unbound was 0.1.

In the case of `CC(C)Cc1ccc([C@@H](C)C(=O)NS(C)(=O)=O)cc1` [REPARIXIN], the fraction unbound is 0.001.

`CC(C)NCC(O)c1ccc(NS(C)(=O)=O)cc1` (stereo unspecified) [SOTALOL]: the fraction unbound was 0.825.

For the molecule `Cc1ccc(S(=O)(=O)NC(=O)NN2CCCCCC2)cc1` [TOLAZAMIDE], the fraction unbound was 0.03.

Turning to `Cc1ccc(C(=O)c2ccc(CC(=O)O)n2C)cc1` [TOLMETIN], the fraction unbound was 0.004.

As to `Cc1cc(CC(=O)O)n(C)c1C(=O)c1ccc(Cl)cc1` [ZOMEPIRAC], the fraction unbound is 0.015.
